Test results reported in patent publication US11369665B2, “Anti-inflammatory peptides and composition comprising the same” (GemVax & KAEL Co., Ltd., priority 2012, dated 2022).

Legend:
[1] = test system: Bax, GSKβ, Cytochrom-c, caspase-3; test: Western blot of apoptotic signals in amyloid-β damaged neural stem cells; assay type: cell-based, rat; conditions: 20 μM amyloid beta, PEP-1 1, 10 and 50 μM, FIGS. 15D, 15G-15I
[2] = test system: neural stem cells; test: Co-treatment amyloid-β and PEP-1: apoptosis (TUNEL assay); assay type: cell-based, rat; conditions: 20 μM amyloid-β protein, 1 to 100 μM of PEP 1
Description: (§1) To determine whether PEP 1 has the effect of suppressing the neurotoxicity caused by amyloid-β protein, 20 μM amyloid-β protein and various concentrations of PEP-1 were co-treated for 48 hours. The cell viability and apoptosis were measured using MMT assay, CCK-8 assay, LDH assay and TUNEL assay, and neural stem cell proliferation by BrdU assay.
To confirm the degree of neuronal stem cells damage, TUNEL assay was performed. […] (Refer to FIG. 12)

[3] = test system: neural stem cells; test: Co-treatment amyloid-β and PEP-1: cell death (LDH assay); assay type: cell-based, rat; conditions: 20 μM amyloid-β protein, co-treated 48 hours
Description: as §1
(§2) (Refer to FIG. 8). LDH assay was carried out for assessment of the degree of cell death as another method, and we confirmed that the increase in cell death by amyloid-β decreased by PEP-1, and efficacy was seen starting at 1 μM concentration (Refer to FIG. 9).

[4] = test system: nitric oxide (NO); test: NO level analysis (Griess reagent) in LPS-stimulated Raw 264.7 cells; assay type: cell-based
Description: Raw 264.7 macrophage cell (KCBL, 40071) from Korea Cell Bank was maintained in Dulbecco's modified Eagle's medium (DMEM; PAA, Austria) containing 10% fetal bovine serum (FBS; GIBCO®), 100 unit/mL of streptomycin, and penicillin (Gibco Laboratories) at 37° C. with 5% CO2. Raw 264.7 cells were seeded into a 96-well plate at a density of 1×10^6 cells/mL and incubated overnight.
[…] After 30 min incubation of cells with the peptide 50 μL of LPS (to a final concentration of 1 μg/mL) was added, and cells were incubated for additional 24 hr. The experimental sample with the induction of inflammatory response was treated with 1 μg/mL mL lipopolysaccharide (LPS; SIGMA-ALDRICH®, USA) and control sample was treated with phosphate buffered saline (PBS; pH 7.2). The supernatant samples from each condition was collected in eppendorf tubes and subjected to further analysis.
The level of nitric oxide (NO) was measured in Raw 264.7 cell (1×10^6 cell/ml) using Griess reagent system (PROMEGA CORPORATION®, USA). Culture medium of 50 μl was added to a 96-well plate and Griess reagent I (NED) solution and Griess reagent II (Sulfanilamide solution) are added in the same amount. After 10 min incubation of cells with the reagents, the optical density at 540 nm was measured within 30 min using a microplate reader (MOLECULAR DEVICES®, USA). The concentration of NO was calculated by using a standard curve (0˜100 μM) of sodium nitrite.

[5] = test system: neural stem cells; test: Co-treatment amyloid-β and PEP-1: cell mobility (migration); assay type: cell-based, rat; conditions: 20 μM amyloid-β protein
Text: Cell mobility is a vital matter due to the nature of neural stem cell. […] (Refer to FIG. 11).

[6] = test system: neural stem cells; test: Co-treatment amyloid-β and PEP-1: proliferation (BrdU assay); assay type: cell-based, rat; conditions: 20 μM amyloid-β protein, co-treated 48 hours
Description: as §1
We also confirmed with BrdU assay that the decreased cell proliferation due to amyloid-β protein was restored when processed with PEP-1 (Refer to FIG. 10).

[7] = test system: GADD 153; test: 2D-electrophoresis protein expression in neural stem cells; assay type: cell-based, rat; conditions: 20 ug β-amyloid + PEP 1 treated group, versus negative control 1.0
Description: (§3) Protein expression level of PEP-1 treated group and untreated group was analyzed by 2D-electrophoresis technique and antibody microarray technique. Prepared 200 μg by extracting proteome from the neural stem cells cultured in Experiment 3-1 of Example 3. In addition, the group in which PEP-1 was not treated was used as the comparison group in the same condition.
(§4) 2D-electrophoresis was performed using 12% acrylamide gels. First gel electrophoresis was performed at PI 4˜10 N, using a gel size of 8.5×7 cm. After electrophoresis, it was dyed with Colloidal Coomassie Blue, and then compared expression by using PDQuest software to analyze each spot.
(§5) Difference in the expression levels of more than 1.5 times was identified using MALDI-TOF MS (Matrix Desorption/Ionization Time of Flight Mass Spectromestry). Among these, proteins correlated with inflammation-related signaling, such as i-NOS and HMGB-1 were identified (Refer to Table 6). The changes in protein expression levels either increased or decreased by 1.5 times by amyloid-β protein, but it was confirmed that expression level was regulated close to that of negative control when PEP-1 was added (Refer to FIGS. 14A-14B).
(§6) The Table 6 below is an analysis of expression levels of proteins associated with inflammation by 2D electrophoresis technique. The control group represents protein expression level of cells that were not treated with neither amyloid-β protein nor PEP-1.

[8] = test system: HSP 90; test: as above; assay type: cell-based, rat; conditions: 20 ug β-amyloid + PEP 1 treated group, versus negative control 1.0
Description: as §3, §4, §5, §6

[9] = test system: e-NOS; test: as above; assay type: cell-based, rat; conditions: 20 ug β-amyloid + PEP 1 treated group, versus negative control 1.0
Description: as §3, §4, §5, §6

[10] = test system: i-NOS; test: as above; assay type: cell-based, rat; conditions: 20 ug β-amyloid + PEP 1 treated group, versus negative control 1.0
Description: as §3, §4, §5, §6

[11] = test system: MAP Kinase; test: as above; assay type: cell-based, rat; conditions: 20 ug β-amyloid + PEP 1 treated group, versus negative control 1.0
Description: as §3, §4, §5, §6

[12] = test system: HSP 70; test: as above; assay type: cell-based, rat; conditions: 20 ug β-amyloid + PEP 1 treated group, versus negative control 1.0
Description: as §3, §4, §5, §6

[13] = test system: HMGB1; test: as above; assay type: cell-based, rat; conditions: 20 ug β-amyloid + PEP 1 treated group, versus negative control 1.0
Description: as §3, §4, §5, §6

[14] = test system: Pyk2; test: as above; assay type: cell-based, rat; conditions: 20 ug β-amyloid + PEP 1 treated group, versus negative control 1.0
Description: as §3, §4, §5, §6

[15] = test system: neural stem cells; test: Co-treatment amyloid-β and PEP-1: viability (MMT and CCK-8 assay); assay type: cell-based, rat; conditions: 20 μM amyloid-β protein, co-treated 48 hours
Description: as §1, §2

[16] = test system: reactive oxygen species; test: Reactive oxygen species by DCF-DA staining in neural stem cells; assay type: cell-based, rat; conditions: 20 μM amyloid-β protein, PEP-1 1 μM, 10 μM, 50 μM
Description: The mechanism of action of PEP-1's protective effect on apoptosis by amyloid-β protein was investigated. First, it was investigated whether PEP-1 is capable of minimizing the oxidative damage caused by amyloid-β protein. Change in generation of reactive oxygen species after treatment with amyloid-β protein and PEP-1 was observed by using DCF-DA staining (Molecular Probes, Eugene, Oreg.). In the group in which reactive oxygen species increased due to 20 μM of amyloid-β protein, the increased reactive oxygen species decreased by PEP-1 treatment (1 μM, 10 μM, 50 μM) (Refer to FIG. 13).

[17] = LPS 1 μg/mL, PEP 1 0.5 μg/mL, 24 hr

Sequence: EARPALLTSRLRFIPK [PEP-1]
- protein expression levels of apoptotic signals Bax, GSKβ, Cytochrom-c, caspase-3 [1]: decreased the protein expression levels
- neuronal stem cell death (TUNEL) [2]: decreased
- concentration at which efficacy starts (LDH) [3]: 1 µM
- increase in cell death by amyloid-β (LDH) [3]: decreased
- Decreased NO Expression Level (%) [4, 17]: 65%
- NO Expression Level of control (%) [4, 17]: 35%
- NO level reduced to % of the control ([4]; co-treatment with LPS): 65%
- cell mobility decreased by amyloid-β ([5]; FIG. 11): restored
- cell mobility compared to control ([5]; PEP-1 10 μM): increased even more
- cell proliferation decreased by amyloid-β (BrdU) [6]: restored
- GADD 153 expression (fold) [7]: 1.2 fold
- HSP 90 expression (fold) [8]: 1.0 fold
- e-NOS expression (fold) [9]: −1.1 fold
- i-NOS expression (fold) [10]: −1.1 fold
- MAP Kinase expression (fold) [11]: 1.0 fold
- HSP 70 expression (fold) [12]: 1.2 fold
- HMGB1 expression (fold) [13]: 2.8 fold
- Pyk2 expression (fold) [14]: 1.2 fold
- concentration at which protection from amyloid-β neurotoxicity began [15]: 10 µM
- concentration of most effective protection from amyloid-β neurotoxicity [15]: 100 µM
- reactive oxygen species increased by amyloid-β [16]: decreased
